Assay results as given in the supplement of paper PMC10307832.

What follows are cell lines tested with Cc1nc(NC(=O)N2CCC[C@H]2C(N)=O)sc1-c1ccnc(C(C)(C)C(F)(F)F)c1 [Alpelisib] + Nc1ncn([C@H]2C[C@H](O)[C@@H](CO)O2)c(=O)n1 [Decitabine] (partner 2 µM) (assay: relative viability (nuclei count vs DMSO), 5 days (fraction); higher = more cells survive). Conditions: first compound 4 µM.
How it was run: (§1)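 The day after seeding in 1536-well plates, lung cancer cell lines were treated by pin tool with a single drug, or with a fixed anchor-drug dose together with five library-drug doses (not always all listed) in √10 steps. After 5 days, a combined fix-and-stain solution (final 0.05% Triton X-100, 1% formaldehyde, 1 ug/ml Hoechst) was added. Nuclei counted on 4× images gave relative viability as treated counts over vehicle counts, reported as the median of duplicate plates.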

Point of comparison: NCI-H23, relative viability 0.198. Against it:
- NCI-H358 — lower, 0.169
- COR-L 105 — higher, 0.569
- LCLC-97TM1 — lower, 0.177
- NCI-H520 — higher, 0.412
- HCC-827 — higher, 0.254
- NCI-H2347 — higher, 0.571
- LXF-289 — higher, 0.277
- NCI-H1666 — higher, 0.612
- RERF-LC-KJ — higher, 0.536
- NCI-H650 — higher, 0.284

What follows are cell lines tested with CCCS(=O)(=O)Nc1ccc(F)c(C(=O)c2c[nH]c3ncc(-c4ccc(Cl)cc4)cc23)c1F [Vemurafenib] + Cc1nc(Nc2ncc(C(=O)Nc3c(C)cccc3Cl)s2)cc(N2CCN(CCO)CC2)n1 [Dasatinib] (partner 0.075 µM) in the same assay as above. Conditions: first compound 0.03162 µM.
How it was run: as §1

Point of comparison: NCI-H2170, relative viability 0.523. Against it:
- A-427 — higher, 0.597
- NCI-H2009 — lower, 0.294
- EKVX — lower, 0.51
- NCI-H2087 — higher, 0.751
- NCI-H1734 — lower, 0.436
- LCLC-103H — lower, 0.45
- LU99A — lower, 0.425
- NCI-H460 — lower, 0.469
- SK-LU-1 — lower, 0.16
- COR-L23 — lower, 0.423
- HCC-15 — higher, 0.551
- NCI-H1944 — lower, 0.198
- EMC-BAC-2 — lower, 0.175
- NCI-H1792 — higher, 0.84
- NCI-H1395 — lower, 0.415
- LC-2-ad — higher, 0.592
- NCI-H2085 — lower, 0.244
- NCI-H727 — lower, 0.323
- NCI-H647 — lower, 0.16
- HARA — lower, 0.272
- NCI-H3122 — higher, 0.652
- NCI-H358 — lower, 0.142
- COR-L 105 — lower, 0.317
- LCLC-97TM1 — higher, 0.76
- NCI-H520 — lower, 0.188
- NCI-H23 — higher, 0.754
- HCC-827 — lower, 0.386
- NCI-H2347 — lower, 0.346
- LXF-289 — lower, 0.203
- NCI-H1666 — higher, 0.741
- RERF-LC-KJ — higher, 0.768
- NCI-H650 — lower, 0.392

Same assay, conditions: first compound 0.1 µM

Point of comparison: NCI-H2087, relative viability 0.789. Against it:
- A-427 — lower, 0.624
- NCI-H2009 — lower, 0.278
- ABC-1 — lower, 0.563
- NCI-H1734 — lower, 0.474
- LCLC-103H — lower, 0.505
- LU99A — lower, 0.554
- NCI-H460 — lower, 0.545
- NCI-H2170 — lower, 0.214
- SK-LU-1 — lower, 0.17
- COR-L23 — lower, 0.503
- HCC-15 — lower, 0.67
- NCI-H1944 — lower, 0.189
- EMC-BAC-2 — lower, 0.28
- NCI-H1792 — lower, 0.733
- NCI-H1395 — lower, 0.411
- LC-2-ad — lower, 0.669
- NCI-H2085 — lower, 0.273
- NCI-H647 — lower, 0.198
- HARA — lower, 0.215
- NCI-H3122 — lower, 0.598
- NCI-H358 — lower, 0.116
- LCLC-97TM1 — higher, 0.853
- NCI-H520 — lower, 0.189
- NCI-H23 — lower, 0.77
- NCI-H2347 — lower, 0.311
- LXF-289 — lower, 0.236
- NCI-H1666 — higher, 0.837
- RERF-LC-KJ — lower, 0.768
- NCI-H650 — lower, 0.52

Same assay, conditions: first compound 0.3162 µM

Point of comparison: LCLC-103H, relative viability 0.317. Against it:
- A-427 — higher, 0.446
- NCI-H2009 — lower, 0.171
- EKVX — higher, 0.661
- NCI-H1734 — higher, 0.357
